This note sets out measurements from patent US5861424A, “Composition and method for treating cancer” (priority 1995, dated 1999).

Structures are written as SMILES. Read-outs that look alike come from different tables or passages of the source.

The test system of experiment [1] is human colon carcinoma CX-1. Kind of experiment: Anti-human colon carcinoma CX-1 activity in nude mice, tumor inhibition. The class given is in vivo, human colon carcinoma in Swiss nu/nu mice. The conditions noted are these: Mus musculus, ip, 24 h. The text has this: Human colon carcinoma cell line CX-1 has been chosen by the National Cancer Institute as a mode for cancer drug screening (NCI Protocol 3C2H2). It was established in culture from the surgical explant of the primary colon adenocarcinoma of a person with no previous chemotherapy. The cultured CX-1 cells, upon subcutaneous injection, can grow readily in nude mice as a moderately- to well-differentiated human colon carcinoma. CEA is expressed as expected for differentiated colon carcinoma cells. Abundant keratin, consistent with epithelial origin, is present. Increased uptake and prolonged retention of delocalized lipophilic cations are observed.
Swiss nu/nu mice obtained from Taconic Farm were housed in a pathogen-free environment. Tumors subcutaneously passaged in nude mice were excised under sterile conditions and converted to a single cell suspension using a metal grid with a 0.4 mm mesh. Red blood cells were lysed by incubation with 0.17M ammonium chloride at 4° C. for 20 minutes. Cells were scored for viability with trypan blue. Viable CX-1 cells (2.5 million) made up in 0.1 ml of cell culture medium were injected subcutaneously into each nude mouse. The mice were randomly allocated into a control group (five mice) and a treatment group (five mice per group). The drug treatment was commenced the next day. Doses and schedules were developed empirically and were based mainly on information on LD50 and LD10 obtained from preliminary toxicity studies. The control group received an equivalent volume of hydroxylpropyl-β-cyclodextrin-5% glucose solution.
The pharmaceutical compositions tested comprised solutions in 5% glucose subjected to sonication at concentrations of 1 mg/ml. Those compounds which were not completely dissolved by this procedure were dissolved in hydroxypropyl-β-cyclodextrin using the following method. Hydroxypropyl-β-cyclodextrin (45 g) was mixed with 100 ml of sterilized, double distilled water and stirred for four hours. Each of the compounds to be tested (20 mg) was mixed with 10 ml of hydroxypropyl-β-cyclodextrin solution and sonicated for 60 minutes in the dark. This solution was then diluted in 5% glucose to yield a final compound concentration of 0.5 mg/ml, and further sonicated for 60 minutes in the dark to assure that the compound was completely dissolved.
When the growth of tumors in the control group reached the exponential phase and the size of the tumor was palpable (usually 20 to 30 days after tumor implantation), the experiments were terminated. Tumors in each mouse were excised and weighed using an analytical balance. Total tumor weight in each group from five mice was calculated. Per cent tumor inhibition between the treated group and the control group was then calculated for each group.

The subject of experiment [2] is human colon carcinoma cell line CX-1. Description: Colony formation assay, human colon carcinoma CX-1. The class given is cell-based. The following applies: Table III; for IC50: Homo sapiens, Colon carcinoma cell, read-out: CX-1 (IC50); for IC50 / CX-1 (IC50): 24 h treatment, colony count after 7 to 10 days; for Selectivity (ratio of IC50 for CV-1 and IC50 for CX-1): CV-1/CX-1.
Experimental: (§2) Human colon carcinoma cell line CX-1 or normal monkey kidney epithelial cell line CV-1 was chosen as representatives of cancer cells and normal cells, respectively. […] CX-1 cells (2,000 cells/well) and CV-1 cells (1,000 cells/well) were plated in 24-well plastic culture plates. […] The control received culture media only. Cells were treated with compounds of General Formulas (1) to (6) at 37° C. for 24 hours. After rinsing with fresh culture medium three times, the cells were further incubated at 37° C. for 7 to 10 days. Cell colonies were fixed and stained with 2% crystal violet in 70% ethanol for 10 minutes and rinsed in water. […] The selectivity is defined as the ratio of IC50 for CV-1 and IC50 for CX-1.

Experiment [3] deals with normal monkey kidney epithelial cell line CV-1. Description: Colony formation assay, normal monkey kidney epithelial cells CV-1.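 Note: colonies visualized by crystal violet staining, incubation at 37 °C, IC50 relative to untreated wells given culture medium alone.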 The conditions noted are these: Primates, Epithelial cell.
Experimental: as §2
For experiment [4], the system named is human melanoma LOX cell line. Description: Colony formation assay, human melanoma LOX. The conditions noted are these: Table V. The class given is cell-based. From the text: (§1) The control received culture media only.
The subject of experiment [5] is human bladder carcinoma EJ cell line. Kind of experiment: Colony formation assay, human bladder carcinoma EJ. Type of experiment: cell-based. The conditions noted are these: Table IV; for Selectivity (CV-1 IC50 / EJ IC50): CV-1/EJ.
Excerpt: as §1

Experiment [6] deals with human breast carcinoma MCF-7 cell line. Description: Colony formation assay, human breast carcinoma MCF-7. Type of experiment: cell-based. The following applies: Table VI.
Excerpt: as §1
The Selectivity values, MCF-7 values and CV-1 values for compounds of the General Formulas (1) to (6) used in the present invention are shown in Table VI below.

The subject of experiment [7] is human pancreatic carcinoma CRL 1420 cell line. Kind of experiment: Colony formation assay, human pancreatic carcinoma CRL 1420. Type of experiment: cell-based. The conditions noted are these: Table VII; for Selectivity (CV-1 IC50 / CRL-1420 IC50): CV-1/CRL-1420.
Excerpt: as §1
The Selectivity values, CRL 1420 values and CV-1 values for compounds of the General Formulas (1) to (6) used in the present invention are shown in Table VII below.

The mark [8] stands for this setting: i.p. on day 1, 4, 7, 11, 15, 18.
The mark [9] stands for this setting: i.p. on day 1, 7**, 9** (**10 mg/kg).
The mark [10] stands for this setting: read-out: CV-1 (IC50), Table III, 24 h treatment, colony count after 7 to 10 days.
Where [11] appears, read: read-out: CV-1 (IC50), Table IV.
The mark [12] stands for this setting: read-out: CV-1 (IC50), Table VII.

In the case of `CCn1c(=Cc2sc3c4ccccc4ccc3[n+]2CC)sc(=CC=C2Sc3ccc4ccccc4c3N2C)c1=O` [Compound 55], 20 mg/kg produced 55.3% inhibition in vivo in experiment [1] (setting [8]).

For `CCN1CCSC1=CC=c1sc(=Cc2cc[n+](CC)c3ccccc23)n(CC)c1=O` [Compound 146], the inhibition in vivo at 20 mg/kg in experiment [1] (setting [9]) worked out at 59.3%.

On to `CN1C(=CC=c2sc(=Cc3sc4c5ccccc5ccc4[n+]3C)n(C)c2=O)Sc2ccc3ccccc3c21` [Compound 48], for which the inhibition in vivo at 20 mg/kg in experiment [1] (setting [8]) turned out to be 72.4%. In addition, in experiment [2], the IC50 was 0.005 µg/mL; the “Selectivity (ratio of IC50 for CV-1 and IC50 for CX-1)” value was 4000. The IC50 in experiment [3] (setting [10]) was 20 µg/mL.

In the case of `CCN1C(=CC=c2sc(=Cc3sc4c5ccccc5ccc4[n+]3CC)n(CC)c2=O)Sc2ccc3ccccc3c21` [Compound 54], the “LOX (IC50)” value in experiment [4] (24 h treatment) amounted to 0.07 µg/mL. Moreover, the “Selectivity (CV-1 IC50 / LOX IC50)” value in experiment [4] (CV-1/LOX) turned out to be 286. In experiment [1] (5 mg/kg, i.p. on day 1, 5, 9, 13), this compound had an inhibition in vivo at 5 mg/kg of 42.6%. Also, the “CX-1 (IC50)” value in experiment [2] was 0.04 µg/mL. Further, in experiment [2], the “Selectivity (ratio of IC50 for CV-1 and IC50 for CX-1)” value is listed as 500. The “EJ (IC50)” value in experiment [5] (24 h treatment) is 0.04 µg/mL. Also, the “Selectivity (CV-1 IC50 / EJ IC50)” value in experiment [5] is given as 500. Besides, the IC50 in experiment [6] (Homo sapiens, MCF7, 24 h, 24 h treatment, read-out: MCF-7 (IC50)) is 0.05 µg/mL; in experiment [3] (setting [11]) it was 20 µg/mL; in experiment [3] (read-out: CV-1 (IC50), Table V), 20 µg/mL; in experiment [3] (read-out: CV-1 (IC50), Table VI), 20 µg/mL; in experiment [3] (setting [12]) it was 20 µg/mL. Further, the “Selectivity (CV-1 IC50 / MCF-7 IC50)” value in experiment [6] (CV-1/MCF-7) worked out at 400. Also, in experiment [7] (24 h treatment), the “CRL-1420 (IC50)” value was 0.05 µg/mL. For the same compound, the “Selectivity (CV-1 IC50 / CRL-1420 IC50)” value in experiment [7] is 400.

As to `CCn1c(=Cc2sc3c4ccccc4ccc3[n+]2C)sc(=CC=C2Sc3ccc4ccccc4c3N2C)c1=O` [Compound 44], at 20 mg/kg the inhibition in vivo in experiment [1] (setting [8]) was 54.8%. In experiment [2], the IC50 is 0.02 µg/mL; the “Selectivity (ratio of IC50 for CV-1 and IC50 for CX-1)” value is listed as 1000. In addition, the IC50 in experiment [3] (setting [10]) worked out at 20 µg/mL.

`C=CCn1c(=Cc2cc[n+](CC)c3ccccc23)sc(=CC=C2C=Cc3ccccc3N2CC)c1=O` [Compound 249] yielded an inhibition in vivo at 20 mg/kg in experiment [1] (i.p. on day 1, 5, 7, 9) of 41.1%. Besides, the IC50 turned out to be 0.05 µg/mL in experiment [2]; 0.045 µg/mL in experiment [7] (Homo sapiens, 24 h, 24 h treatment); 5 µg/mL in experiment [3] (setting [10]); 5 µg/mL in experiment [3] (setting [12]). The “Selectivity (ratio of IC50 for CV-1 and IC50 for CX-1)” value in experiment [2] is 100. Further, the “Selectivity (CV-1 IC50 / CRL-1420 IC50)” value in experiment [7] turned out to be 111.

As to `CCn1c(=Cc2sc3c4ccccc4ccc3[n+]2CC)sc(=CC=C2Sc3ccc4ccccc4c3N2C)c1=O` [Compound 56], the inhibition in vivo at 20 mg/kg in experiment [1] (i.p. on day 1, 5, 8, 11) came out at 82.6%. In experiment [2], the “CX-1 (IC50)” value was found to be 0.1 µg/mL; the “Selectivity (ratio of IC50 for CV-1 and IC50 for CX-1)” value was 200. In addition, the IC50 in experiment [5] (Homo sapiens, EJ, 24 h, 24 h treatment, read-out: EJ (IC50)) came to 0.09 µg/mL. Moreover, the “Selectivity (CV-1 IC50 / EJ IC50)” value in experiment [5] was 222. Moreover, the “CRL-1420 (IC50)” value in experiment [7] (24 h treatment) was under 0.046 µg/mL. In experiment [7], the “Selectivity (CV-1 IC50 / CRL-1420 IC50)” value is listed as over 435. Further, the IC50 in experiment [3] (setting [11]) stood at 20 µg/mL.

The compound `C=CCn1c(=Cc2cc[n+](CC)c3ccccc23)sc(=CC=C2C=CN(CC)c3ccccc32)c1=O` [Compound 304] came in with an inhibition in vivo at 20 mg/kg in experiment [1] (setting [9]) of 65.9%.

The inhibition in vivo is the change of the read-out against control, counted positive when it falls. As a reminder, the IC50 is the concentration that inhibits the measured activity by half.
